Consider 27 molecules from ChEMBL document CHEMBL1135169, “4,4-Disubstituted cyclohexylamine NK(1) receptor antagonists I” (Bioorg Med Chem Lett, 2002).

The inhibition is the change of the read-out against control, counted positive when it falls. For orientation: inhibition in vivo means how much of the control response was suppressed. Broadly, the IC50 is the concentration that gives 50% inhibition. Low values mean inhibition by little substance, high ones a need for much substance.

T1 sequence (P25103 whole entry): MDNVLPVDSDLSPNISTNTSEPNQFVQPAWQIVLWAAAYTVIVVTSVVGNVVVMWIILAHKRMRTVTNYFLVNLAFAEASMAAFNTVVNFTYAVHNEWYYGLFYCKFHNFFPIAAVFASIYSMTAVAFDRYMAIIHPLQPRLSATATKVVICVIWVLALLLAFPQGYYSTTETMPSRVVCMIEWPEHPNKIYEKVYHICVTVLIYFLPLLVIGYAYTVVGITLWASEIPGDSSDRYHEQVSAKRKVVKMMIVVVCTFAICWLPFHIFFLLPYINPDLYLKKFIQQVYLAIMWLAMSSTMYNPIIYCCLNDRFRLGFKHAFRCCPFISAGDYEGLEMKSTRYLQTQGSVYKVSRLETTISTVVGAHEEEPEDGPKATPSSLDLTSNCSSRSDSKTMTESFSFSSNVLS

The first assay concerns the target T1, Substance-P receptor (Homo sapiens, UniProt P25103). The assay can be described thus: Tested for inhibitory concentration expressed as displacement of [125I]-labeled substance P from the cloned Tachykinin receptor 1 expressed in CHO cells at dosage of 1000 nM.
Conditions: not given
Format: cell-based.
For `O=C(OC[C@]1(c2ccccc2)CC[C@@H](N2CCC(c3ccc(F)cc3)CC2)CC1)c1cc(C(F)(F)F)cc(C(F)(F)F)c1`, the inhibition turned out to be 50%.

For another assay, the system named is Gerbillinae. In words: Inhibitory dose after 24 hours required to produce blockade of foot-tapping activity induced by central infusion of NK1-agonist GR-73632. Format: functional. The note with it: read-out: ID50 (the source's name).
Take `CC(C(=O)N[C@]1(c2ccccc2)CC[C@@H](N2CCC(c3ccc(F)cc3)CC2)CC1)c1cc(C(F)(F)F)cc(C(F)(F)F)c1` (mixture of isomers): the ED50 is 1.8 mg/kg.

The next assay concerns Gerbillinae. In words: Inhibitory activity when the NK1 agonist challenge was given 2 hr after dosing at 3 mg/kg, iv. In kind it is functional.
Conditions: not given
On to `O=C(NCc1cc(C(F)(F)F)cc(C(F)(F)F)c1)[C@]1(c2ccccc2)CC[C@H](N2CCC(c3ccc(F)cc3)CC2)CC1`, for which the inhibition in vivo at 3 mg/kg turned out to be 15%.

The next assay deals with Gerbillinae. In words: Inhibitory dose after 2 hours required to produce blockade of foot-tapping activity induced by central infusion of NK1-agonist GR-73632. The note with it: read-out: ID50 (the source's name). In kind it is functional.
On to `CC(C(=O)N[C@]1(c2ccccc2)CC[C@@H](N2CCC(c3ccc(F)cc3)CC2)CC1)c1cc(C(F)(F)F)cc(C(F)(F)F)c1` (mixture of isomers), for which the ED50 amounted to 0.6 mg/kg.

The next assay deals with T1, Substance-P receptor. In words: Tested for inhibitory concentration expressed as displacement of [125I]-labeled substance P from the cloned human Tachykinin receptor 1 expressed in CHO cells.
Conditions: not given
Format: cell-based. In general terms: Displacement assays read how much labelled ligand stays bound in the presence of the test substance.
With `FC(F)(F)c1cc(CO[C@H]2C3CCN(CC3)[C@H]2c2ccccc2)cc(C(F)(F)F)c1`, the IC50 is 0.2 nM.

The target of a further assay is T1, Substance-P receptor. The assay can be described thus: Displacement of [125I]-labeled substance P from the cloned Tachykinin receptor 1.
Conditions: not given
In turn, `O=C(Cc1cc(C(F)(F)F)cc(C(F)(F)F)c1)N[C@]1(c2ccccc2)CC[C@H](N2CCC(c3ccc(F)cc3)CC2)CC1` yielded an IC50 of 0.7 nM.
On the same count and under the same terms, the result for `O=C(NC(CO)c1cc(C(F)(F)F)cc(C(F)(F)F)c1)[C@]1(c2ccccc2)CC[C@@H](N2CCC(c3ccc(F)cc3)CC2)CC1` (mixture of isomers) reads 0.29 nM; that for `CC(NC(=O)[C@]1(c2ccccc2)CC[C@@H](N2CCC(c3ccc(F)cc3)CC2)CC1)c1cc(C(F)(F)F)cc(C(F)(F)F)c1` (single isomer, unassigned; (-)), 1.5 nM.
The same measure, in the same setting: the result for `CC(C(=O)N[C@]1(c2ccccc2)CC[C@@H](N2CCC(c3ccc(F)cc3)CC2)CC1)c1cc(C(F)(F)F)cc(C(F)(F)F)c1` (mixture of isomers) reads 0.63 nM.
On the same count and under the same terms, to `CC(NC(=O)[C@]1(c2ccccc2)CC[C@@H](N2CCC(c3ccc(F)cc3)CC2)CC1)c1cc(C(F)(F)F)cc(C(F)(F)F)c1` (stereo in doubt; (+)-29a) belongs 0.35 nM; to `O=C(Cc1cc(C(F)(F)F)cc(C(F)(F)F)c1)N[C@]1(c2ccccc2)CC[C@@H](N2CCC(c3ccc(F)cc3)CC2)CC1`, 85 nM; to `O=C(OCc1cc(C(F)(F)F)cc(C(F)(F)F)c1)[C@]1(c2ccccc2)CC[C@H](N2CCC(c3ccc(F)cc3)CC2)CC1`, 2.5 nM.
Take `Fc1ccc(C2CCN([C@H]3CC[C@@](COCc4cc(C(F)(F)F)cc(C(F)(F)F)c4)(c4ccccc4)CC3)CC2)cc1`: the IC50 came to 59 nM.
The same measure, in the same setting: the result for `O=C(NC[C@]1(c2ccccc2)CC[C@H](N2CCC(c3ccc(F)cc3)CC2)CC1)c1cc(C(F)(F)F)cc(C(F)(F)F)c1` reads 6.3 nM; that for `O=C(N[C@]1(c2ccccc2)CC[C@@H](N2CCC(c3ccc(F)cc3)CC2)CC1)C(CO)c1cc(C(F)(F)F)cc(C(F)(F)F)c1` (mixture of isomers), 0.44 nM.
Regarding `Fc1ccc(C2CCN([C@H]3CC[C@](COCc4cc(C(F)(F)F)cc(C(F)(F)F)c4)(c4ccccc4)CC3)CC2)cc1`, the IC50 amounted to 4.2 nM.
Still for that read-out and setting: the result for `O=C(NC[C@]1(c2ccccc2)CC[C@@H](N2CCC(c3ccc(F)cc3)CC2)CC1)c1cc(C(F)(F)F)cc(C(F)(F)F)c1` reads 250 nM.
With `Fc1ccc(C2CCN([C@H]3CC[C@@](CNCc4cc(C(F)(F)F)cc(C(F)(F)F)c4)(c4ccccc4)CC3)CC2)cc1`, the IC50 amounted to 82 nM. This IC50 lies about 3-fold lower than the previous one.
Same read-out and setting: to `CC(OC[C@]1(c2ccccc2)CC[C@@H](N2CCC(c3ccc(F)cc3)CC2)CC1)c1cc(C(F)(F)F)cc(C(F)(F)F)c1` (mixture of isomers) belongs 5.3 nM.
`Fc1ccc(C2CCN([C@H]3CC[C@](CNCc4cc(C(F)(F)F)cc(C(F)(F)F)c4)(c4ccccc4)CC3)CC2)cc1` yielded an IC50 of 1.7 nM.
The same measure, in the same setting: the result for `O=C(OCc1cc(C(F)(F)F)cc(C(F)(F)F)c1)[C@]1(c2ccccc2)CC[C@@H](N2CCC(c3ccc(F)cc3)CC2)CC1` reads 140 nM; that for `Fc1ccc(C2CCN(C3CCC(CCCc4cc(C(F)(F)F)cc(C(F)(F)F)c4)(c4ccccc4)CC3)CC2)cc1` (mixture of isomers), 40 nM.
On the same count and under the same terms, to `O=C(OC[C@]1(c2ccccc2)CC[C@H](N2CCC(c3ccc(F)cc3)CC2)CC1)c1cc(C(F)(F)F)cc(C(F)(F)F)c1` belongs 120 nM; to `CC(C)(C(=O)N[C@]1(c2ccccc2)CC[C@@H](N2CCC(c3ccc(F)cc3)CC2)CC1)c1cc(C(F)(F)F)cc(C(F)(F)F)c1`, 0.49 nM; to `CC(NC(=O)[C@]1(c2ccccc2)CC[C@@H](N2CCC(c3ccc(F)cc3)CC2)CC1)c1cc(C(F)(F)F)cc(C(F)(F)F)c1` (mixture of isomers), 0.77 nM.
Still for that read-out and setting: to `CC(C)(NC(=O)[C@]1(c2ccccc2)CC[C@@H](N2CCC(c3ccc(F)cc3)CC2)CC1)c1cc(C(F)(F)F)cc(C(F)(F)F)c1` belongs 0.62 nM.
For `O=C(NCc1cc(C(F)(F)F)cc(C(F)(F)F)c1)[C@]1(c2ccccc2)CC[C@H](N2CCC(c3ccc(F)cc3)CC2)CC1`, the IC50 was 0.34 nM.
The same measure, in the same setting: the result for `OCC(OC[C@]1(c2ccccc2)CC[C@@H](N2CCC(c3ccc(F)cc3)CC2)CC1)c1cc(C(F)(F)F)cc(C(F)(F)F)c1` (mixture of isomers) reads 0.75 nM.
Still for that read-out and setting: to `O=C(NCc1cc(C(F)(F)F)cc(C(F)(F)F)c1)C1(c2ccccc2)CCNCC1` belongs 130 nM; to `O=C(NCc1cc(C(F)(F)F)cc(C(F)(F)F)c1)[C@]1(c2ccccc2)CC[C@@H](N2CCC(c3ccc(F)cc3)CC2)CC1`, 150 nM.

The test system of the next assay is Gerbillinae. In words: Inhibitory dose required to produce blockade of foot-tapping activity induced by central infusion of NK1-agonist GR-73632. The note with it: read-out: ID50 (the source's name). Format: functional.
For the molecule `CC(C(=O)N[C@]1(c2ccccc2)CC[C@@H](N2CCC(c3ccc(F)cc3)CC2)CC1)c1cc(C(F)(F)F)cc(C(F)(F)F)c1` (mixture of isomers), the ED50 came to 1.7 mg/kg.
Still for that read-out and setting: to `O=C(NCc1cc(C(F)(F)F)cc(C(F)(F)F)c1)[C@]1(c2ccccc2)CC[C@H](N2CCC(c3ccc(F)cc3)CC2)CC1` belongs 1.9 mg/kg.
